Measurements reported in PMC9395488, “First-in-human study of IM156, a novel potent biguanide oxidative phosphorylation (OXPHOS) inhibitor, in patients with advanced solid tumors” (Investigational New Drugs, 2022).

Test system: patients with advanced solid tumors
Test: First-in-human phase 1 dose-escalation study: safety, DLTs, adverse events
Type: in vivo
Text: This multicenter first-in-human dose-escalation phase 1 study (clinicaltrials.gov identifier: NCT03272256) was designed to determine the MTD or RP2D and to evaluate the safety and tolerability of IM156. Secondary endpoints included PK characteristics, efficacy assessment (objective response rate [ORR], disease control rate [DCR], duration of response [DoR] and progression-free survival [PFS]). Furthermore, exploratory objectives included identification and profiling of IM156 metabolites, evaluations of exploratory PD markers of IM156, and evaluations of any potential relationship between putative biomarkers and safety/efficacy parameters of IM156. The study was conducted in accordance with Good Clinical Practice, the International Council for Harmonisation, and guidelines governing clinical study conduct and the ethical principles originating from the Declaration of Helsinki. The study was approved by each Institutional Review Board and patients provided written informed consent. Patients were enrolled at three sites in South Korea.
The initial dose and schedule of IM156 was chosen based on animal toxicology studies. […] IM156 was administered in the fasted state, with no food for at least 2 h before and 1 h after dosing.
Three DLT-evaluable patients were enrolled at each dose level. If there were no DLTs or other prohibitive adverse events (AEs), the Safety Committee was allowed to recommend escalation to the next highest dose level. If 1 DLT occurred in the first 3 DLT-evaluable patients, enrollment in that cohort was expanded to an additional 3 DLT-evaluable patients; if ≥ 2 DLTs were reported in a cohort, that dose was considered above the MTD.
Safety was assessed through vital signs, weight, laboratory assessments, physical examinations, electrocardiogram, and reporting of AEs as graded by the National Cancer Institute’s Common Terminology Criteria for Adverse Events v4.03 (NCI-CTCAE).
DLTs were defined as the following AEs if they were attributed as related to IM156: asymptomatic grade 4 neutropenia lasting for ≥ 5 days; febrile neutropenia, regardless of grade; grade 4 thrombocytopenia or grade 3 thrombocytopenia with bleeding; any grade ≥ 3 non-hematologic AE (except grade 3 hypertension and grade 3 nausea, vomiting or diarrhea for which proper measures for prevention and treatment were not implemented, and alopecia); blood lactate levels > 5 mmol; grade ≥ 2 AE prohibiting dosing of IM156 for ≥ 21 continuous days except for alterations in serum calcium or phosphorus levels. The safety analysis includes all patients who received at least one dose of study drug.
The safety population was defined as all patients who received at least one dose of IM156. The PK population was not defined in the protocol but included all patients with sufficient PK data to perform adequate PK modeling. The efficacy population included all patients who underwent at least one tumor imaging assessment while receiving IM156. Safety was assessed using descriptive statistics (e.g., DLTs, AEs, laboratory tests, physical examination, 12-lead ECG). The incidence and number of events were reported for the DLTs observed in Cycle 1 per dose group. […] Adverse events and TRAEs were standardized with the System Organ Class and the Preferred Term using the Medical Dictionary for Regulatory Activities v23.0. In addition, TEAEs, serious adverse events (SAEs), TEAE severity, and TEAEs leading to withdrawal were presented by dose group. Efficacy data were to be presented by Waterfall and Swim Lane plots. Time to event endpoints (e.g., DoR, PFS) were determined using Kaplan–Meier estimations with the median value for each endpoint summarized.

[1] = DL1 100 mg orally every other day (n=3)
[2] = DL2 200 mg orally every other day (n=3)

NC(=Nc1ccc(OC(F)(F)F)cc1)N=C(N)N1CCCC1 [IM156]
1: TEAE Abdominal pain, grade 2 (DL2 200 mg QOD (n=3)) | TEAE Alanine aminotransferase increased, grade 1 (DL2 200 mg QOD (n=3)) | TEAE Asthenia, grade 1 (DL2 200 mg QOD (n=3)) | TEAE Cough, grade 1 (DL2 200 mg QOD (n=3)) | TEAE Diarrhoea, grade 2 (DL2 200 mg QOD (n=3)) | TEAE Ileus, grade 3 (DL2 200 mg QOD (n=3)) | TEAE Nausea, grade 1 (DL2 200 mg QOD (n=3)) | TEAE Pleural effusion, grade 2 (DL2 200 mg QOD (n=3)) | TEAE Pyrexia, grade 1 (DL2 200 mg QOD (n=3)) | TRAE Decreased appetite, All grades (patients) (DL2 200 mg QOD oral, N = 3) | TRAE Diarrhoea, All grades (patients) (DL2 200 mg QOD oral, N = 3) | TRAE Insomnia, All grades (patients) (DL2 200 mg QOD oral, N = 3) | TRAE Nausea, All grades (patients) (DL2 200 mg QOD oral, N = 3) | TEAE Anaemia grade 2 [2] | TEAE Flank pain grade 2 [2] | TEAE Insomnia grade 2 [2] | TEAE Psychiatric disorders grade 2 [2] | TEAE Cough, grade 1 (DL3 400 mg QOD (n=3)) | TEAE Headache, grade 2 (DL3 400 mg QOD (n=3)) | TEAE Nausea, grade 1 (DL3 400 mg QOD (n=3)) | TEAE Neutrophil count decreased, grade 4 (DL3 400 mg QOD (n=3)) | TEAE Peripheral sensory neuropathy, grade 1 (DL3 400 mg QOD (n=3))
2: TEAE Vomiting, grade 1 (DL2 200 mg QOD (n=3)) | TRAE Vomiting, All grades (patients) (DL2 200 mg QOD oral, N = 3) | TEAE Nausea, grade 2 (DL3 400 mg QOD (n=3)) | TEAE Vomiting, grade 1 (DL3 400 mg QOD (n=3))
0: TEAE Psychiatric disorders grade 1 [1] | TEAE Psychiatric disorders grade 2 [1] | TEAE Psychiatric disorders grade 3 [1] | TEAE Psychiatric disorders grade 4 [1] | TEAE Purpura grade 1 [1] | TEAE Purpura grade 2 [1] | TEAE Purpura grade 3 [1] | TEAE Purpura grade 4 [1] | TEAE Urinary retention grade 1 [1] | TEAE Urinary retention grade 2 [1] | TEAE Urinary retention grade 3 [1] | TEAE Urinary retention grade 4 [1] | TEAE Urinary tract disorder grade 1 [1] | TEAE Urinary tract disorder grade 2 [1] | TEAE Urinary tract disorder grade 3 [1] | TEAE Urinary tract disorder grade 4 [1] | TRAE Abdominal Pain, > G3 (patients) (DL2 200 mg QOD oral, N = 3) | TRAE Abdominal Pain, All grades (patients) (DL2 200 mg QOD oral, N = 3) | TRAE Blood Lactic Acid increased, > G3 (patients) (DL2 200 mg QOD oral, N = 3) | TRAE Blood Lactic Acid increased, All grades (patients) (DL2 200 mg QOD oral, N = 3) | TRAE Constipation, > G3 (patients) (DL2 200 mg QOD oral, N = 3) | TRAE Constipation, All grades (patients) (DL2 200 mg QOD oral, N = 3) | TRAE Decreased appetite, > G3 (patients) (DL2 200 mg QOD oral, N = 3) | TRAE Diarrhoea, > G3 (patients) (DL2 200 mg QOD oral, N = 3) | TRAE Fatigue, > G3 (patients) (DL2 200 mg QOD oral, N = 3) | TRAE Fatigue, All grades (patients) (DL2 200 mg QOD oral, N = 3) | TRAE Insomnia, > G3 (patients) (DL2 200 mg QOD oral, N = 3) | TRAE Nausea, > G3 (patients) (DL2 200 mg QOD oral, N = 3) | TRAE Vomiting, > G3 (patients) (DL2 200 mg QOD oral, N = 3) | TEAE Adrenal insufficiency grade 1 [2] | TEAE Adrenal insufficiency grade 2 [2] | TEAE Adrenal insufficiency grade 3 [2] | TEAE Adrenal insufficiency grade 4 [2] | TEAE Anaemia grade 1 [2] | TEAE Anaemia grade 3 [2] | TEAE Anaemia grade 4 [2] | TEAE Appendicitis perforated grade 1 [2] | TEAE Appendicitis perforated grade 2 [2] | TEAE Appendicitis perforated grade 3 [2] | TEAE Appendicitis perforated grade 4 [2] | TEAE Back pain grade 1 [2] | TEAE Back pain grade 2 [2] | TEAE Back pain grade 3 [2] | TEAE Back pain grade 4 [2] | TEAE Cystitis grade 1 [2] | TEAE Cystitis grade 2 [2] | TEAE Cystitis grade 3 [2] | TEAE Cystitis grade 4 [2] | TEAE Dry skin grade 1 [2] | TEAE Dry skin grade 2 [2] | TEAE Dry skin grade 3 [2] | TEAE Dry skin grade 4 [2] | TEAE Flank pain grade 1 [2] | TEAE Flank pain grade 3 [2] | TEAE Flank pain grade 4 [2] | TEAE Hypertension grade 1 [2] | TEAE Hypertension grade 2 [2] | TEAE Hypertension grade 3 [2] | TEAE Hypertension grade 4 [2] | TEAE Hypotension grade 1 [2] | TEAE Hypotension grade 2 [2] | TEAE Hypotension grade 3 [2] | TEAE Hypotension grade 4 [2] | TEAE Insomnia grade 1 [2] | TEAE Insomnia grade 3 [2] | TEAE Insomnia grade 4 [2] | TEAE Pain in extremity grade 1 [2] | TEAE Pain in extremity grade 2 [2] | TEAE Pain in extremity grade 3 [2] | TEAE Pain in extremity grade 4 [2] | TEAE Pruritus grade 1 [2] | TEAE Pruritus grade 2 [2] | TEAE Pruritus grade 3 [2] | TEAE Pruritus grade 4 [2] | TEAE Psychiatric disorders grade 1 [2] | TEAE Psychiatric disorders grade 3 [2] | TEAE Psychiatric disorders grade 4 [2] | TEAE Purpura grade 1 [2] | TEAE Purpura grade 2 [2] | TEAE Purpura grade 3 [2] | TEAE Purpura grade 4 [2] | TEAE Urinary retention grade 1 [2] | TEAE Urinary retention grade 2 [2] | TEAE Urinary retention grade 3 [2] | TEAE Urinary retention grade 4 [2] | TEAE Urinary tract disorder grade 1 [2] | TEAE Urinary tract disorder grade 2 [2] | TEAE Urinary tract disorder grade 3 [2] | TEAE Urinary tract disorder grade 4 [2] | TRAE Abdominal Pain, > G3 (patients) (DL3 400 mg QOD oral, N = 3) | TRAE Abdominal Pain, All grades (patients) (DL3 400 mg QOD oral, N = 3)
